Measured values as given in patent publication US20120164104A1, “Composition and Methods of Treating Viral Infections and Viral Induced Tumors” (Chimerix, Inc., priority 2009, published 2012).

Legend:
C33A = assay: Cell proliferation assay (MTS or SRB), C33A; type: cell-based, human; settings: Cervical, 3 days, read-out: IC50 (cell growth inhibition)
Experimental: (§1) In vitro cell proliferation assays were performed using a 96-well plate based MTSassay (CellTiter 96° AqueousOne Solution Cell Proliferation Assay, Promega) or SRB (Sulforhodamine-B) assay (1-3). Briefly, cells were plated in 100 μl medium on day 0 in 96-well microtiter plates (Falcon #3072). On day 1, 10 μl of serial dilutions of each compound (Nine 1:2 dilutions with a starting concentration of 100 μM; in some cases, a starting concentration of 400 μM (CMX001 or Cidofovir) or 1 μM (some standard agents)) were added in triplicates to the plates. For standard agents using DMSO as solvent, serial dilutions of DMSO with a starting concentration of 0.5% were also included as a vehicle control.
(§2) After incubation for 3 days at 37° C. in a humidified incubator, viable cells were measured either by MTS or SRB assay. For MTS assay, 20 μl of a 20:1 mixture of (3-(4,5-dimethylthiazol-2-yl)-5-(3-carboxymethoxyphenyl)-2-(4-sulfophenyl)-2H-tetrazolium, inner salt (MTS, 2 mg/ml) and an electron coupling reagent, phenazine methosulfate (PMS, 0.92 mg/ml in DPBS), was added to each well and incubated for 3 hours at 37° C. Absorbance was measured using a BioTek Synergy™ HT Multiple Detection microplate reader at 490 nm. For SRB assay, cells were fixed in situ with 50 μL of cold trichloroacetic acid (TCA, final concentration at 10% w/v) for 60 minutes. Cells were then washed 5 times with H2O and air-dried.
(§3) Next, cells were stained with 20 μL of 0.2% SRB in 1% acetic acid and incubated at room temperature for 30 minutes and unbound SRB was removed by washing 5 times with 1% acetic acid and air-dried. Finally, bound SRB stain was solubilized in 50 μL of 50 μM Tris buffer before taking an optical density measurement at 570 nm using the BioTek microplate reader. The growth inhibition data were expressed as the percentage of cell survival calculated from the background corrected absorbance. The surviving fraction of cells was determined by dividing the mean absorbance values of the test agent-treated samples by the mean absorbance values of untreated control. […]

SiHa = assay: Cell proliferation assay (MTS or SRB), SiHa; type: cell-based, human; settings: Cervical, 3 days, read-out: IC50 (cell growth inhibition)
Experimental: as §1, §2, §3

SK-OV-3 = assay: Cell proliferation assay (MTS or SRB), SK-OV-3; type: cell-based, human; settings: SK-OV-3, Ovarian, 3 days; read-out: IC50 (cell growth inhibition)
Experimental: as §1, §2, §3

OVCAR-3 = assay: Cell proliferation assay (MTS or SRB), OVCAR-3; type: cell-based, human; settings: OVCAR-3, Ovarian, 3 days; read-out: IC50 (cell growth inhibition)
Experimental: as §1, §2, §3

A2058 = assay: Cell proliferation assay (MTS or SRB), A2058; type: cell-based; settings: Homo sapiens, 72 h; A2058, Skin (melanoma), 3 days; read-out: IC50 (cell growth inhibition)
Experimental: as §1, §2
(§4) Next, cells were stained with 20 μL of 0.2% SRB in 1% acetic acid and incubated at room temperature for 30 minutes and unbound SRB was removed by washing 5 times with 1% acetic acid and air-dried. Finally, bound SRB stain was solubilized in 50 μL of 50 μM Tris buffer before taking an optical density measurement at 570 nm using the BioTek microplate reader. The growth inhibition data were expressed as the percentage of cell survival calculated from the background corrected absorbance. The surviving fraction of cells was determined by dividing the mean absorbance values of the test agent-treated samples by the mean absorbance values of untreated control.
(§5) Raw data were acquired using a BioTek Synergy™ HT Multiple Detection microplate reader and imported into Microsoft Excel for analysis. The average signal of each treatment was calculated from the triplicates after subtracting the blank signals. The percentage survival values were calculated using the following formula: % survival=(average signal of the drug treatment/average signal of untreated controls)×100. The data were finally imported into the Prism 4 software (GraphPad Software, San Diego, Calif.) to generate the dose-activity curves using non-linear regression curve fit and to calculate the IC50 values.

SK-MEL-2 = assay: Cell proliferation assay (MTS or SRB), SK-MEL-2; type: cell-based; settings: Homo sapiens, 72 h; SK-MEL-2, Skin (melanoma), 3 days; read-out: IC50 (cell growth inhibition)
Experimental: as §1, §2, §4, §5

DU 145 = assay: Cell proliferation assay (MTS or SRB), DU 145; type: cell-based; settings: Homo sapiens, 72 h; DU 145, Prostate, 3 days; read-out: IC50 (cell growth inhibition)
Experimental: as §1, §2, §3

PC-3 = assay: Cell proliferation assay (MTS or SRB), PC-3; type: cell-based; settings: Homo sapiens, 72 h; PC-3, Prostate, 3 days; read-out: IC50 (cell growth inhibition)
Experimental: as §1, §2, §3

MDA-231 = assay: Cell proliferation assay (MTS or SRB), MDA-231; type: cell-based; settings: Homo sapiens, MDA-MB-231, 72 h; MDA-231, Breast, 3 days; read-out: IC50 (cell growth inhibition)
Experimental: as §1, §2, §3

MCF-7 = assay: Cell proliferation assay (MTS or SRB), MCF-7; type: cell-based; settings: Homo sapiens, MCF7, 72 h; MCF-7, Breast, 3 days; read-out: IC50 (cell growth inhibition)
Experimental: as §1, §2, §3

H460 = assay: Cell proliferation assay (MTS or SRB), H460; type: cell-based; settings: Homo sapiens, NCI-H460, 72 h; H460, Lung, 3 days; read-out: IC50 (cell growth inhibition)
Experimental: as §1, §2, §3

A549 = assay: Cell proliferation assay (MTS or SRB), A549; type: cell-based; settings: Homo sapiens, 72 h; A549, Lung, 3 days; read-out: IC50 (cell growth inhibition)
Experimental: as §1, §2, §3

Caki-1 = assay: Cell proliferation assay (MTS or SRB), Caki-1; type: cell-based; settings: Homo sapiens, 72 h; Caki-1, Kidney, 3 days; read-out: IC50 (cell growth inhibition)
Experimental: as §1, §2, §3

Caki-2 = assay: Cell proliferation assay (MTS or SRB), Caki-2; type: cell-based; settings: Homo sapiens, 72 h; Caki-2, Kidney, 3 days; read-out: IC50 (cell growth inhibition)
Experimental: as §1, §2, §3

SCaBER = assay: Cell proliferation assay (MTS or SRB), SCaBER; type: cell-based; settings: Homo sapiens, 72 h, Bladder, 3 days, read-out: IC50 (cell growth inhibition)
Experimental: as §1, §2, §3

SW 780 = assay: Cell proliferation assay (MTS or SRB), SW 780; type: cell-based; settings: Homo sapiens, SW780, 72 h; SW 780, Bladder, 3 days; read-out: IC50 (cell growth inhibition)
Experimental: as §1, §2, §3

SK-HEP-1 = assay: Cell proliferation assay (MTS or SRB), SK-HEP-1; type: cell-based; settings: Homo sapiens, SK-HEP1, 72 h; SK-HEP-1, Liver, 3 days; read-out: IC50 (cell growth inhibition)
Experimental: as §1, §2, §3

Hep G2 = assay: Cell proliferation assay (MTS or SRB), Hep G2; type: cell-based; settings: Homo sapiens, HepG2, 72 h; Hep G2, Liver, 3 days; read-out: IC50 (cell growth inhibition)
Experimental: as §1, §2, §3

PANC-1 = assay: Cell proliferation assay (MTS or SRB), PANC-1; type: cell-based; settings: Homo sapiens, 72 h; PANC-1, Pancreatic, 3 days; read-out: IC50 (cell growth inhibition)
Experimental: as §1, §2, §3

MIA PaCa-2 = assay: Cell proliferation assay (MTS or SRB), MIA PaCa-2; type: cell-based; settings: Homo sapiens, 72 h; MIA PaCa-2, Pancreatic, 3 days; read-out: IC50 (cell growth inhibition)
Experimental: as §1, §2, §3

HT-29 = assay: Cell proliferation assay (MTS or SRB), HT-29; type: cell-based, human; settings: HT-29, Colon, 3 days; read-out: IC50 (cell growth inhibition)
Experimental: as §1, §2, §3

HCT-116 = assay: Cell proliferation assay (MTS or SRB), HCT-116; type: cell-based, human; settings: HCT-116, Colon, 3 days; read-out: IC50 (cell growth inhibition)
Experimental: as §1, §2, §3

BK virus = assay: Antiviral activity against BK virus in RPTEC cells (viral DNA by qPCR, 5 days); type: cell-based; settings: for EC50: Betapolyomavirus hominis, RPTEC, RPTEC cells
Experimental: In order to test the activity of CMX001 to inhibit replication of BK virus, stocks of BK virus were prepared in HFF cells and dilutions of the virus stocks were used to infect primary human renal tubular epithelial cells (RPTECs). CMX001 were then added to the wells containing the infected cells and the plates were incubated for 5 days. Total DNA was prepared from the plates and viral DNA was quantified by qPCR.

N.N.[Cl][Pt][Cl] [Cisplatin] showed an IC50 (C33A) of 1200 nM, an IC50 (SiHa) of 15500 nM and an IC50 (SK-OV-3) of 9200 nM. It also gave an IC50 (OVCAR-3) of 4900 nM.

For CN(C)/N=N/c1[nH]cnc1C(N)=O [DTIC, Dacarbazine], the IC50 (A2058) was > 100000 nM and the IC50 (SK-MEL-2) was > 100000 nM.

CC(=O)O[C@@]12CO[C@@H]1C[C@H](O)[C@@]1(C)C(=O)[C@H](O)C3=C(C)[C@@H](OC(=O)[C@H](O)[C@@H](NC(=O)OC(C)(C)C)c4ccccc4)C[C@@](O)([C@@H](OC(=O)c4ccccc4)[C@H]21)C3(C)C [Docetaxel] gave an IC50 (DU 145) of 2.4 nM, an IC50 (PC-3) of 1.1 nM and an IC50 (MDA-231) of 2.8 nM. The IC50 (MCF-7) was 15 nM, the IC50 (H460) was 4.2 nM and the IC50 (A549) was 1.4 nM.

Work on COc1cccc2c1C(=O)c1c(O)c3c(c(O)c1C2=O)C[C@@](O)(C(=O)CO)C[C@@H]3O[C@H]1C[C@H](N)[C@H](O)[C@H](C)O1 [Doxorubicin] yielded an IC50 (Caki-1) of 74 nM, an IC50 (Caki-2) of 1230 nM and an IC50 (SCaBER) of 60 nM. It also gave an IC50 (SW 780) of 160 nM, an IC50 (SK-HEP-1) of 29 nM and an IC50 (Hep G2) of 50 nM.

Nc1ccn([C@@H]2O[C@H](CO)[C@@H](O)C2(F)F)c(=O)n1 [Gemcitabine] gave an IC50 (PANC-1) of 130 nM and an IC50 (MIA PaCa-2) of 29 nM.

In the case of O=C1[O][Pt]2([NH][C@@H]3CCCC[C@H]3[NH]2)[O]C1=O [Oxaliplatin], the IC50 (HT-29) is reported as 360 nM and the IC50 (HCT-116) is reported as 480 nM.

For Nc1nc(O)c2ncn(COC(CO)CO)c2n1 [ganciclovir], the EC50 (BK virus; virus dilution 1:10) was 89000 nM, the EC50 (BK virus; virus dilution 1:50) was > 100000 nM and the EC50 (BK virus; virus dilution 1:100) was 70800 nM. The “activity against BK virus replication” value (BK virus; RPTECs, in words) was “essentially inactive”.

With Cn1nnc2c(C(N)=O)ncn2c1=O [temozolomide] the IC50 (A2058) was > 100000 nM and the IC50 (SK-MEL-2) was > 100000 nM.
